From patent publication US12552766B2, “Pesticidally active azole amide compounds” (SYNGENTA CROP PROTECTION AG, priority 2019, dated 2026)

Assays:
Format in all cases: in vivo
[1] = tested on: Plutella xylostella (Diamond Back Moth); test: Example B5: Plutella xylostella, artificial diet, 24-well; conditions: 192 h, application rate of 200 ppm, eggs, 8 days after infestation, read-out: control in at least one of the two categories (mortality or growth inhibition)
Experimental: 24-well microtiter plates with artificial diet were treated with aqueous test solutions prepared from 10′000 ppm DMSO stock solutions by pipetting. After drying, Plutella eggs were pipetted through a plastic stencil onto a gel blotting paper and the plate was closed with it. The samples were assessed for mortality and growth inhibition in comparison to untreated samples 8 days after infestation.

[2] = tested on: Plutella xylostella (Diamondback Moth); test: Example B13: Plutella xylostella, artificial diet, 96-well; conditions: 216 h, application rate of 500 ppm, eggs/L1 larvae, 9 days after infestation
Experimental: 96-well microtiter plates containing artificial diet were treated with aqueous test solutions, prepared from 10′000 ppm DMSO stock solutions, by a liquid handling robot. After drying, eggs (˜30 per well) were infested onto a netted lid which was suspended above the diet. The eggs hatch and L1 larvae move down to the diet. The samples were assessed for mortality 9 days after infestation.

[3] = tested on: Spodoptera littoralis (Egyptian Cotton Leaf Worm); test: Example B9: Spodoptera littoralis, spray on cotton leaf discs; conditions: foliar, 72 h, application rate of 200 ppm, L1 larvae, 3 days after infestation, read-out: control in at least one of the three categories (mortality, anti-feedant effect, or growth inhibition)
Summary of the method: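 Read-out: mortality, feeding deterrence and growth inhibition, assessed 3 days after infestation relative to untreated samples. Sprayed, dried cotton leaf discs on agar each received five first-instar (L1) larvae; sprays were aqueous solutions prepared from 10′000 ppm DMSO stocks.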

[4] = tested on: Diabrotica Balteata (Corn Root Worm); test: Example B1: Diabrotica balteata, spray on maize sprouts; conditions: 96 h, application rate of 200 ppm, L2 larvae, 4 days after infestation, read-out: control in at least one of the two categories (mortality or growth inhibition)
Summary of the method: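 Spray test: maize sprouts on agar, aqueous dilutions of 10′000 ppm DMSO stock; after drying, 6–10 L2 larvae/well. Read-out at 4 d post-infestation: mortality and growth inhibition vs untreated.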

[5] = tested on: Tetranychus urticae (Two-Spotted Spider Mite); test: Example B14: Tetranychus urticae, feeding/contact activity; conditions: 192 h
Experimental: Bean leaf discs on agar in 24-well microtiter plates were sprayed with aqueous test solutions prepared from 10′000 ppm DMSO stock solutions. After drying the leaf discs were infested with a mite population of mixed ages. The samples were assessed for mortality on mixed population (mobile stages) 8 days after infestation.

[6] = tested on: Chilo suppressalis (Striped Rice Stemborer); test: Example B4: Chilo suppressalis, artificial diet; conditions: 144 h, application rate of 200 ppm, L2 larvae, 6 days after infestation, read-out: control in at least one of the three categories (mortality, anti-feedant effect, or growth inhibition)
Summary of the method: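 Scoring covers mortality, anti-feedant effect and growth inhibition at 6 days post-infestation, relative to untreated diet, with activity defined as at least one category above untreated. Test solutions were aqueous, made from 10'000 ppm DMSO stocks, and applied to artificial diet before drying and infestation with L2 larvae.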

[7] = tested on: Euschistus heros (Neotropical Brown Stink Bug); test: Example B2: Euschistus heros, spray on soybean leaves; conditions: 120 h, application rate of 200 ppm, N2 nymphs, 5 days after infestation, read-out: control in at least one of the two categories (mortality or growth inhibition)
Experimental: Soybean leaves on agar in 24-well microtiter plates were sprayed with aqueous test solutions prepared from 10′000 ppm DMSO stock solutions. After drying the leaves were infested with N2 nymphs. The samples were assessed for mortality and growth inhibition in comparison to untreated samples 5 days after infestation.

[8] = tested on: Spodoptera littoralis (Egyptian Cotton Leaf Worm); test: Example B10: Spodoptera littoralis, uptake by lettuce roots from agar; conditions: 144 h, test rate of 12.5 ppm, eggs, 6 days after infestation, read-out: control in at least one of the three categories (mortality, anti-feedant, or growth inhibition)
Excerpt: Test compounds were applied by pipette from 10′000 ppm DMSO stock solutions into 24-well plates and mixed with agar. Lettuce seeds were placed onto the agar and the multi well plate was closed by another plate which contained also agar. After 7 days the compound was absorbed by the roots and the lettuce grew into the lid plate. The lettuce leaves were then cut off into the lid plate. Spodoptera eggs were pipetted through a plastic stencil onto a humid gel blotting paper and the lid plate was closed with it. The samples were assessed for mortality, anti-feedant effect and growth inhibition in comparison to untreated samples 6 days after infestation.

CC(NC(=O)c1cc(OC(F)F)cc(C(F)(F)F)c1)c1nc(Br)nn1-c1ccc(OCC(F)F)cn1 (stereo not shown) [Compound P16, N-[1-[5-bromo-2-[5-(2,2-difluoroethoxy)-2-pyridyl]-1,2,4-triazol-3-yl]ethyl]-3-(difluoromethoxy)-5-(trifluoromethyl) benzamide]
≥ 80%: percent control (mortality or growth inhibition) at 200 ppm [1] | mortality at 500 ppm [2] | percent control (mortality, anti-feedant effect or growth inhibition) at 200 ppm [3] | percent control (mortality or growth inhibition) at 200 ppm [4] | mortality at 200 ppm [5] | percent control (mortality, anti-feedant effect or growth inhibition) at 200 ppm [6]

CC(c1nc(Br)nn1-c1ccc(C#N)cn1)N(C)C(=O)c1cc(C(F)(F)F)cc(C(F)(F)F)c1 (stereo not shown) [Compound P12, N-[1-[5-bromo-2-(5-cyano-2-pyridyl)-1,2,4-triazol-3-yl]ethyl]-N-methyl-3,5-bis(trifluoromethyl) benzamide]
≥ 80%: percent control (mortality or growth inhibition) at 200 ppm [7] | percent control (mortality or growth inhibition) at 200 ppm [1] | percent control (mortality, anti-feedant effect or growth inhibition) at 12.5 ppm [8] | mortality at 500 ppm [2] | percent control (mortality, anti-feedant effect or growth inhibition) at 200 ppm [3] | percent control (mortality or growth inhibition) at 200 ppm [4] | percent control (mortality, anti-feedant effect or growth inhibition) at 200 ppm [6]
